{"source": "patent US11306121B2", "about": "“Composition for muscle relaxation” (CAREGEN CO., LTD., priority 2018, dated 2022)", "key": {"[1]": {"settings": "1,000 ppm in sterile distilled water, stored at 45° C., maximum observation time of 75 days"}, "[2]": {"settings": "1,000 ppm in sterile distilled water, warmed at 121° C., maximum warming time of 30 minutes"}}, "note": "Like-named read-outs stand apart in the source and are kept apart here. Residues, ends and D or L forms follow the SMILES beside them."}
{"compound": "CC[C@H](C)[C@H](NC(=O)[C@H](CC(C)C)NC(=O)[C@H](Cc1ccccc1)NC(=O)[C@@H](N)CCCCN)C(=O)N[C@@H](CCCCN)C(=O)O", "note": "[peptide of the present invention, KFLIK] (H-KFLIK-OH; N-terminus and C-terminus assumed)", "values": [{"measurement": "stability of the peptide (HPLC assay)", "setting": "[1]", "result": "maintained"}, {"measurement": "stability of the peptide (HPLC assay)", "setting": "[2]", "result": "maintained"}]}
